Measurements reported in patent US20210332001A1, “SYNTHESIS AND ANTI-TUMOR ACTIVITIES OF ACYL-PARA-AMINOPHENOL DERIVATIVES” (Montefiore Medical Center, priority 2018, published 2021).
Values belong to the compound of their own block, whether it stands above or below them.

Experiments:
malignant astrocytes = details: cell culture method, Casper et al. (6); cited from earlier work
[1] = test system: T-cell lymphoma cells line (Jurkat cells); assay: Jurkat T-cell lymphoma cell survival (presto blue), 48 hours post treatment; type: cell-based
Description: FIG. 2. The compounds were tested against T-cell lymphoma cells line (Jurkat cells) obtained from ATCC and were tested against APAP and its derivatives at various concentrations with 0.2% DMSO as a vehicle. Free flowing cells were seeded at 3500 cells and allowed 48 hours to stabilize before treatment. Drugs were administered to both seeded wells and wells that that were designated blank, without cells. This additional step was added in order to account for the effects of the drugs on the reagent used for analysis. Data for cell survival, using presto blue, was analyzed at 48 hours post treatment.
The effects of the drugs on lymphoma cells were tested on Jurkat cells, as described above and in FIG. 2.

[2] = test system: U87MG cells, stage IV astrocytoma; assay: U87MG cell survival (presto blue), 48 hours post treatment; type: cell-based
Description: (§1) FIG. 1. U87MG cells, stage IV astrocytoma obtained from ATCC, were tested against APAP and its derivatives at various concentrations with 0.2% DMSO as a vehicle. Cells were seeded at 3500 cells and allowed 48 hours to stabilize before treatment. Drugs were administered and data for cell survival, using presto blue, were analyzed at 48 hours post treatment.
as §1, with “U87MG” for “FIG. 1. U87MG”, “concentration” for “concentrations”, “vehicle (FIG. 1).” for “vehicle.”

[3] = test system: differentiated neuronal cell line HCN-2; assay: Toxicity on differentiated neuronal cell line HCN-2; type: cell-based, human; details: HCN-2 differentiated 12 days; for reduction (non-significant): highest soluble concentration, not a significant reduction
Description: FIG. 3. The compounds were tested on a differentiated neuronal cell line (9) HCN-2, obtained from ATCC. Cells were seeded at 5,000 cells per well using a low passage, second passage of cells to ensure cell stability. Cells were then subjected to induced differentiation, at 72 hours, with a differentiating concoction composed of 25 ng/mL NGF-beta-human, 0.05 mM dibutyryl cAMP and 0.5 mM IBMX in 10% DMEM, all differentiating factors were obtained from Sigma Aldrich (9). Cells were treated with differentiating factor for 12 days to ensure that cells differentiated into neuronal cells. On the twelfth day, cells were treated with and without drugs at the highest soluble concentration to determine the activity of the compounds on neuronal cells.
The compounds were also tested on a differentiated neuronal cell line, HCN-2, obtained from ATCC (FIG. 3).

- melting point: 119 °C
Compound: CCCCCCCCC(=O)Nc1ccc(O)cc1 [PL9, N-(4-hydroxyphenyl)nonanamide]
- toxicity on neuronal cells ([3]; highest concentration 0.25 mM): toxicity

- melting point: 124 °C
Compound: CCCCCCCCCC(=O)Nc1ccc(O)cc1 [PL10, N-(4-hydroxyphenyl)decanamide]
- activity when compared to APAP ([1]; 0.125 mM): greatest activity
- reduction (non-significant) [3]: 35.6%

- melting point: 128 °C
Compound: CCCCCCCCCCCC(=O)Nc1ccc(O)cc1 [PL12, N-(4-hydroxyphenyl)dodecanamide]

- melting point: 131 °C
Compound: CCCCCCCCCCCCCCCC(=O)Nc1ccc(O)cc1 [PL16, N-(4-Hydroxyphenyl)hexadecanamide]

Continued, compound first:

Compound: CC(=O)Nc1ccc(O)cc1 [APAP, N-(4-Hydroxyphenyl)acetamide, reference compound]
- ability to reduce the growth of malignant astrocytes (malignant astrocytes): only mild
- reduction in cell growth as compared to control 0.2% DMSO ([1]; 2 mM): 16%
- reduction in cell growth as compared to control 0.2% DMSO ([2]; 2 mM): 36%

Compound: CC(C)C(=O)Nc1ccc(O)cc1 [PL4, N-(4-hydroxyphenyl)-2-methylpropanamide]
- melting point: 160 to 162 °C

Compound: O=C(Nc1ccc(O)cc1)c1ccccc1 [PL5B, N-(4-hydroxyphenyl)benzamide]
- melting point: 217 to 218 °C

Compound: CCCCCC(=O)Nc1ccc(O)cc1 [PL6, N-(4-hydroxyphenyl)hexanamide]
- melting point: 110 °C

Compound: CCCCCCC(=O)Nc1ccc(O)cc1 [PL7, N-(4-hydroxyphenyl)heptanamide]
- melting point: 109 °C
- toxicity on neuronal cells ([3]; highest concentration 0.5 mM): toxicity
- activity (cell survival) in words ([2]; 0.5 mM): greatest activity

Compound: CCCCCCCC(=O)Nc1ccc(O)cc1 [PL8, N-(4-hydroxyphenyl)octanamide]
- melting point: 120 °C
- toxicity on neuronal cells ([3]; highest concentration 0.5 mM): toxicity
- activity (cell survival) in words ([2]; 0.25 mM): greatest activity

Compound: O=C(Nc1ccc(O)cc1)c1ccc2ccccc2c1 [PL11]
- reduction (non-significant) [3]: 35.6%
- reduction in cell growth ([2]; 0.25 mM): 87.5%
